According to patent publication US6921775B2, “Methods for modulating brain damage” (Children's Medical Center Corporation, priority 2001, dated 2005):

Columns and labels:
[1] = test system: OL precursor cells; assay: Kainate-induced excitotoxicity in OL precursor cultures (trypan blue cell viability); format: cell-based, rat; conditions: 300 μM kainate; for concentration giving significant reduction of kainate-induced cell death: cell survival assessed 24 hr later
Description: Primary oligodendrocyte precursor cells were isolated from mixed glial cultures of the forebrains of newborn Sprague-Dawley rats using a selective detachment procedure as described in detail elsewhere (McCarthy and de Vellis, 1980; Back et al., 1998), and further purified by differential adhesion (Back et al., 1998). Precursor cells were maintained in a chemically-defined medium (CDM) supplemented with recombinant human platelet derived growth factor-AA (PDGF, 10 ng/ml) and basic fibroblast growth factor (bFGF, 10 ng/ml). The CDM was Dulbecco Modified Eagle's Medium (DMEM) containing D-glucose (25 mM), L-glutamine (4 mM), sodium pyruvate (1 mM), human apo-transferrin (50 μg/ml), bovine pancreatic insulin (5 μg/ml), sodium selenium (30 nM), hydrocortisone (10 nM), D-biotin (10 nM), and bovine serum albumin (BSA, 1 mg/ml). All chemicals were from Sigma. Precursor cells were maintained in the presence of growth factors (PDGF+bFGF) by refeeding with fresh medium every 48 hr for 7 days, to promote cell proliferation and prevent differentiation (Bogler et al., 1990). Experiments were performed with cultures maintained in CDM without the supplemental growth factors. These cultures were routinely characterized by immunochemical detection of cell-specific markers as described before (Back et al., 1998). Cultures at the beginning of experiments usually consisted of approximately 90% A2B5^+ oligodendrocyte precursors and less than 5% glial fibrillary acidic protein (GFAP)-positive astrocytes. Cells were plated on poly-DL-ornithine-coated 24-well plates for cell viability assays and on coated glass coverslips for immunocytochemistry, proliferation studies, and lineage analysis. Kainic acid (Sigma-RBI) were first dissolved in 0.1N HCl, and cyclothiazide (Sigma) in 0.1N NaOH, then added to culture medium to the desired final concentration. The pH of the culture media was maintained at 7.4. Topiramate (RWJ Pharmaceutical Research Institute) and NBQX (Sigma-RBI) were directly dissolved in culture medium and applied 10 min prior to exposure of the cells to kainate or oxygen-glucose deprivation (OGD). Following exposure to kainate or OGD for 24 hr, cell death was quantitatively assessed using the trypan blue exclusion method (Perry et al., 1997). Cells in 5-7 adjacent fields (×200) per well were counted to determine cell survival. At least 1000 cells per condition were counted in control cultures. The mean±SEM values for each experimental group were obtained from at least three separate experiments, and each was performed in triplicate. […] OGD has been previously shown to cause non-NMDA receptor-mediated ischemic cell death in a similar culture model (Fern and Moller, 2000). […] Cell survival was assessed 24 hr later.

[2] = test system: OL precursor cells; assay: Cell lineage progression (stage-specific markers A2B5, O4, O1, MBP) in OL precursor cultures; format: cell-based, rat; conditions: topiramate 30 μM, NBQX 100 μM; 0, 2, 6 and 10 days of maturation
Description: Primary oligodendrocyte precursor cells were isolated from mixed glial cultures of the forebrains of newborn Sprague-Dawley rats using a selective detachment procedure as described in detail elsewhere (McCarthy and de Vellis, 1980; Back et al., 1998), and further purified by differential adhesion (Back et al., 1998). Precursor cells were maintained in a chemically-defined medium (CDM) supplemented with recombinant human platelet derived growth factor-AA (PDGF, 10 ng/ml) and basic fibroblast growth factor (bFGF, 10 ng/ml). The CDM was Dulbecco Modified Eagle's Medium (DMEM) containing D-glucose (25 mM), L-glutamine (4 mM), sodium pyruvate (1 mM), human apo-transferrin (50 μg/ml), bovine pancreatic insulin (5 μg/ml), sodium selenium (30 nM), hydrocortisone (10 nM), D-biotin (10 nM), and bovine serum albumin (BSA, 1 mg/ml). All chemicals were from Sigma. […] Cell lineage progression was monitored by the sequential emergence of stage-specific immunochemical markers: A2B5, O4, O1, and MBP, as described previously (Back et al., 1998). […] The effect of these protocols on maturation was also assessed. Differentiation of the cultures in the absence or presence of topiramate (30 μM) or NBQX (100 μM) was monitored by cell morphology and the sequential emergence of a panel of OL stage-specific markers (A2B5, O4, O1, and MBP), following 0, 2, 6, and 10 days of maturation.

With `CC1(C)O[C@@H]2[C@@H](CO[C@@]3(COS(N)(=O)=O)OC(C)(C)O[C@@H]23)O1` [topiramate] the “concentration giving significant reduction of kainate-induced cell death” value [1] was ≥ 30 µM, the cell survival ([1]; topiramate 50-100 μM, 24 hr) was “approximately 70%” and the “progression along the OL lineage (morphology, A2B5, O4, O1, MBP)” value [2] was “indistinguishable from the progression of the control cultures”.
For `NS(=O)(=O)c1cccc2c1c([N+](=O)[O-])cc1nc(O)c(O)nc12` [NBQX, 2,3-Dioxo-6-nitro-1,2,3,4-tetrahydrobenzo[f]quinoxaline-7-sulphonamide], the “protection against kainate-induced cell death at 50 μM” value ([1]; 50 μM NBQX, 24 hr) was “fully protective”, the “concentration giving significant reduction of kainate-induced cell death” value [1] was ≥ 10 µM and the “progression along the OL lineage (morphology, A2B5, O4, O1, MBP)” value [2] was “indistinguishable from the progression of the control cultures”.
